Series [1] relates to splenic B and T cell subsets. In words: Flow cytometry of splenic B and T cell subsets after rhGAA and methotrexate. It counts as in vivo, mice. As to the method:
20 mg/kg of Myozyme® (Genzyme Corporation) was given by tail vein injection once or for 2-6 weekly doses, commencing with the first methotrexate dose. Animals were sacrificed weekly or daily after initiation of treatment. Spleen, mesenteric, and inguinal lymph nodes were collected for flow cytometric analysis of T and B cell subsets and sera was collected for ELISA assays. Spleens were processed between glass slides and red blood cells (RBC) was lysed with lysing buffer purchased from BD Biosciences (catalog#555899) according to the manufacturer's instructions. Lymph nodes were processed between glass slides and washed with phosphate buffered saline (PBS) containing 2% fetal calf serum (FCS). Cells were resuspended in 200 μL of PBS containing 4% fetal bovine serum and 25 μg/mL of total mouse IgG and blocked for 30 minutes at 4° C. Approximately 3 million spleens cells and 1 million lymph node cells were stained with different antibody cocktails and analyzed with a high through put sampler (HTS) on a Becton Dickinson CANTOII flow cytometer. At least 100,000 cell events were acquired within the lymphocyte gate. Anti-mouse antibody cocktails consisted of PE-CD21/35 catalog #552957, FITC-catalog #553138, PE-CD138 catalog #553714, PE-PE-Cy7-CD4 catalog #552775, FITC-CD3e catalog #553062, APC-CD11b catalog #553312, PE-Cy7-IgM catalog #552867, APC-Cy7-CD8 catalog #557654, PE-CD273 (PD-L2) catalog #557796, APC-CD138 catalog #558626, PE-Cy7-CD11b catalog #552850, PE-CD93 (early B lineage) catalog #558039, APC-CD69 catalog #560689, Pe-Cy7-CD24 catalog #560536, FITC-CD1d catalog #553845, APC-CD5 catalog #550035, and Percp-Cy5-7AAD catalog #559925, all purchased from BD Pharmingen. FITC-FoxP3 intracellular staining kit was purchased from eBioscience. Pacific Blue (PB)-CD25 catalog #102022, PB-CD23 catalog #101616 and PB-CD86 catalog #105022 were purchased from BioLegend. Analysis of lymphocyte subsets was performed with FCS express version 3 software provided by De Novo Software. Percentages were generated with the batch processing option and absolute numbers were calculated according to the cell counts obtained. Spleen and lymph node cell counts were obtained with a Beckman Coulter Vi-cell XR cell viability analyzer according to the manufacturer's instructions.
C57BL/6 (Jackson Laboratories) or E4GAAKO (Charles River) mice 8-12 weeks old were given 5 mg/kg of methotrexate (Calbiochem catalog #454125) by intraperitoneal injection for 1 cycle (3 consecutive daily doses) commencing with treatment with 20 mg/kg of rhGAA. For the 1D11 studies, animals were treated with intraperitoneal injections of 5 mg/kg of either 1D11 or 13C4 (Genzyme Corporation) 3 time per week, every other day, commencing with rhGAA and methotrexate treatment. Animals were sacrificed on day 6 or 7 post rhGAA initiation depending on the mouse strain. Spleens were prepared in single cell suspension and loaded onto the RoboSep (STEMCELL technologies) instrument according to the manufacturer's instructions and subjected to B cell negative selection. Purified B cells were seeded at 500,000 cells per well in 96 well round bottom plates (Costar catalog #3799) and either incubated with no stimulation or with 10 μg/mL of LPS (Sigma catalog #L5014) for 48 hours at 37° C. All wells received Monensin (BD Bioscience catalog #554724) according to the manufacturer's instructions. Cells were allowed to incubate for at least 4 hours at 37° C. Samples were transferred to V bottom wells (USA Scientific catalog #651201) and spun at 1200 rpm for 5 minutes at 4° C. Cells were resuspended in 200 μL of PBS containing 4% fetal bovine serum and 25 μg/ml of total mouse IgG and blocked for 30 minutes at 4° C.
In general terms: A flow cytometer gives signals particle by particle.

The test system of series [2] is anti-rhGAA antibody titers. Put plainly: Adoptive transfer of splenic B cells from tolerized mice. It counts as in vivo, C57BL/6 mice. Conditions: donors treated with Myozyme and a single cycle of methotrexate. As to the method: C57BL/6 mice were obtained from Jackson Laboratories and were housed under specific pathogen free conditions. Control mice were given a single intravenous injection of rhGAA at 20 mg/kg. Tolerized mice were given a single intravenous injection of rhGAA at 20 mg/kg, in addition to three daily consecutive methotrexate intraperitoneal injections of 0.5 mg. Spleens were harvested on day six after the initial rhGAA injection, from both donor groups, and processed into pooled single cell suspensions. Cells were washed and filtered through a […]. Cells were then enriched for B cells using a StemCell Technologies RoboSep cell separation system, and resuspended to allow for a 200 μl intravenous injection. Tolerized and non-tolerized recipient groups received either a high cell 10×10^6 or a low cell 5×10^6 concentration via intravenous injections. Control groups were given rhGAA only, or rhGAA and methotrexate (single cycle of three consecutive daily MTX injections). All groups received weekly intravenous rhGAA 20 mg/kg injections, and were retro-orbitally bled biweekly for 16 weeks, into BD Vacutainer serum separator tubes. Serum was removed and stored below −20° C. until used for ELISA. Anti-rhGAA antibody titers were determined using ELISA, read on a SpectraMax M2, and calculated using Softmax to extrapolate titer value. […]

The test system of series [3] is circulating and splenic T cells and B cells. Put plainly: Flow cytometry of alemtuzumab-mediated lymphocyte depletion in blood and spleen. It counts as in vivo, huCD52 Tg mice. As to the method: For splenocyte and lymph node cell preparations single-cell suspensions were generated from harvested mouse spleens or inguinal and mesenteric lymph nodes by homogenization between frosted glass slides into PBS containing 2% FCS. For splenocyte preparations, red blood cells were lysed by 1-2 minute incubation with a red blood cell lysis solution (BD Biosciences, San Diego, Calif.). Blood was isolated by retro-orbital bleeding and cell preparations were performed by lysing red blood cells with red blood cell lysing solution (BD Biosciences) for 20-30 minutes. For all tissue preparations, live cells were enumerated using the ViCell automated counter (Beckman Coulter, Fullerton, Calif.). Following isolation, all cell preparations were washed with PBS/2% FCS prior to use in the assays described below.
For evaluation of cell populations within different tissues, single cell suspensions of the tissues were incubated with fluorochrome-conjugated antibodies that included anti-mouse CD4, CD8, CD25, CD44, CD62L (all antibodies from BD Biosciences or eBioscience, San Diego, Calif.). Intracellular Foxp3 expression analysis was performed according to the anti-Foxp3 manufacturer's protocol (eBiosciences, San Diego, Calif.). Following incubation with the antibodies, cells were washed and analyzed by flow cytometry (FACSCanto, BD Biosciences and FCS Express software, De Novo Software, Los Angeles, Calif.).

Where [4] appears, read: Myozyme and methotrexate vs Myozyme alone.

As for `CN(Cc1cnc2nc(N)nc(N)c2n1)c1ccc(C(=O)N[C@@H](CCC(=O)O)C(=O)O)cc1` [methotrexate, Methotrexate], in series [1] (setting [4]), the “IL-10, TGFbeta and FoxP3 mean fluorescence intensity in multiple cell subsets” value is “statistically significant increases”; the “number of B10 B cells expressing IL-10” value was “increased”. In addition, the “activated B cell subsets (marginal zone, follicular, transitional 2 and 3)” value in series [1] (following methotrexate treatment with rhGAA) is listed as “significantly increased”. In addition, in series [1] (methotrexate and Myozyme), the “numbers of FoxP3+ B cells” value was “increase”. Moreover, the “absolute cell numbers of IL-10, TGF-beta and FoxP3 expressing transitional 2, transitional 3 and follicular B cells” value in series [1] (methotrexate vs Myozyme alone) is “increased”. Also, the “numbers of TGF-beta-expressing B10 B cells” value in series [1] (methotrexate-tolerized animals) is “increased”. For the same molecule, the “B10 regulatory B cell population” value in series [1] (seven and eight days following Myozyme treatment) is “significant increases”. In series [1] (two cycles of Myozyme and methotrexate), the “activated T helper, T cytotoxic and T regulatory cell populations” value is given as “largely unchanged”. The “transfer of immune tolerance to Myozyme in naive hosts by total splenic B cells” value in series [2] is reported as “could transfer immune tolerance”. The “depletion of circulating T cells by fifth monthly dose of alemtuzumab” value in series [3] (alemtuzumab alone, or with methotrexate 5 mg/kg daily for first three days) is given as “restored the ability of alemtuzumab to deplete T cells”. Besides, in series [3] (methotrexate-treated animals, one day following fifth alemtuzumab treatment), the “splenic T cell populations” value is recorded as “significantly depleted”. The “splenic B cell populations, except follicular B cells” value in series [3] (mice treated with alemtuzumab and methotrexate, after fifth alemtuzumab dose) is given as “not significantly depleted”. The “effect on marginal zone B cells with alemtuzumab” value in series [3] (spleen, two days following last day of methotrexate treatment) is on record as “may enhance the depletion of marginal zone B cells”. The “depletion of circulating B cells by fifth monthly dose of alemtuzumab” value in series [3] (with methotrexate 5 mg/kg daily for first three days) is listed as “enhance the depletion of B cells”.

The values above are taken from patent US11672802B2, “Induction of immune tolerance by using methotrexate” (Genzyme Corporation, priority 2011, dated 2023).
